Results published in ChEMBL document CHEMBL1151870, “Synthetic studies in butenonyl C-glycosides: Preparation of polyfunctional alkanonyl glycosides and their enzyme inhibitory activity” (Bioorg Med Chem Lett, 2009).

What was measured:
[1] = system: Rattus norvegicus; assay: Antihyperglycemic activity against sucrose-challenged fasted Wistar rat assessed as reduction in blood glucose at 100 mg/kg, po administered 30 mins before sucrose challenge measured after 30 mins post sucrose dose relative to control; assay type: functional; parameters: scale not given: the % may be the effect or the level left
[2] = system: Rattus norvegicus; assay: Antihyperglycemic activity against sucrose-challenged streptozotocin-induced fasted Sprague-Dawley rat assessed as reduction in hyperglycemia at 100 mg/kg, po administered 30 mins before sucrose challenge measured after 24 hrs post sucrose dose relative to control; assay type: functional; parameters: scale not given: the % may be the effect or the level left
[3] = system: Rattus norvegicus; assay: Antihyperglycemic activity against sucrose-challenged streptozotocin-induced fasted Sprague-Dawley rat assessed as reduction in hyperglycemia at 100 mg/kg, po administered 30 mins before sucrose challenge measured after 5 hrs post sucrose dose relative to control; assay type: functional; parameters: scale not given: the % may be the effect or the level left
[4] = target: T1, Glucose-6-phosphatase catalytic subunit 1 (Rattus norvegicus) (UniProt P43428); assay: Inhibition of rat liver glucose-6-phosphatase at 100 uM
T1 sequence (whole entry): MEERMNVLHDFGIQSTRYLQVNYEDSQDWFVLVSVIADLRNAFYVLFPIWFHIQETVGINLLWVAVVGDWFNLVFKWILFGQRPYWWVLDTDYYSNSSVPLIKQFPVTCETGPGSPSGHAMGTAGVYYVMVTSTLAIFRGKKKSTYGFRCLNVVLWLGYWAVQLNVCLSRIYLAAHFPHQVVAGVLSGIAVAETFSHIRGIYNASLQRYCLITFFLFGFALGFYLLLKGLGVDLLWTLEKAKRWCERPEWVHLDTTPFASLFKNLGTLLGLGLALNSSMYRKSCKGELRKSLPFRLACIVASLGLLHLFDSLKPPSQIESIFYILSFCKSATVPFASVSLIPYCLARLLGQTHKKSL

[5] = target: Lysosomal alpha-glucosidase (Rattus norvegicus) (UniProt Q6P7A9); assay: Inhibition of rat intestinal alpha-glucosidase at 100 uM
[6] = target: T2, Glycogen phosphorylase, liver form (Rattus norvegicus) (UniProt P09811); assay: Inhibition of rat liver glycogen […] at 100 uM
T2 sequence (whole entry): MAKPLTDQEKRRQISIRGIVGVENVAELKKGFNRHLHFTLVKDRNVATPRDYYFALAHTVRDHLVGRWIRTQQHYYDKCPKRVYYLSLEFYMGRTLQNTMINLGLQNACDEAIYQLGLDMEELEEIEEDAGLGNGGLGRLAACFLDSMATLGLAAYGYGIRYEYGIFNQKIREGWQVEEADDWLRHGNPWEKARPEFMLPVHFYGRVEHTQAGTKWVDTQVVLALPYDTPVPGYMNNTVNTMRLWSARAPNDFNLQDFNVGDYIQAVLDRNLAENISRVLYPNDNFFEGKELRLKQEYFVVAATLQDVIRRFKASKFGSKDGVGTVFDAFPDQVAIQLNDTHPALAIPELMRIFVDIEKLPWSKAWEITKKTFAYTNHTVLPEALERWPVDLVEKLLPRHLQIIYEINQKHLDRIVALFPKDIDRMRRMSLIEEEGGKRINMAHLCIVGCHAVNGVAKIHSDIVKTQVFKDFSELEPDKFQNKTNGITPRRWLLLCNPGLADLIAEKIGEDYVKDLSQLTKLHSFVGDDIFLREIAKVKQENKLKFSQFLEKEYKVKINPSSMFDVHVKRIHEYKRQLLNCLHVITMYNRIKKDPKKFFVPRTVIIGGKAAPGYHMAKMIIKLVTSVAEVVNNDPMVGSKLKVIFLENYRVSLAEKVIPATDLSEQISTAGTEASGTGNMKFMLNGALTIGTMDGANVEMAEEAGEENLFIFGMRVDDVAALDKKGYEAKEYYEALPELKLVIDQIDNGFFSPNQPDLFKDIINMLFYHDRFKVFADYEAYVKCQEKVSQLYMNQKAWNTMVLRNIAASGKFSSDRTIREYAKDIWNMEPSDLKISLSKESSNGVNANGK

[7] = target: T3, Glucose-6-phosphatase catalytic subunit 1 (Rattus norvegicus, UniProt P43428); assay: Inhibition of rat liver glucose-6-phosphatase
T3 sequence (P43428 whole entry): T1 sequence (whole entry)

[8] = target: T4, Glycogen phosphorylase, liver form (Rattus norvegicus, UniProt P09811); assay: Inhibition of rat liver glycogen […]
T4 sequence (P09811 whole entry): T2 sequence (whole entry)

Chain of Lysosomal alpha-glucosidase (Rattus norvegicus) (Q6P7A9 whole entry): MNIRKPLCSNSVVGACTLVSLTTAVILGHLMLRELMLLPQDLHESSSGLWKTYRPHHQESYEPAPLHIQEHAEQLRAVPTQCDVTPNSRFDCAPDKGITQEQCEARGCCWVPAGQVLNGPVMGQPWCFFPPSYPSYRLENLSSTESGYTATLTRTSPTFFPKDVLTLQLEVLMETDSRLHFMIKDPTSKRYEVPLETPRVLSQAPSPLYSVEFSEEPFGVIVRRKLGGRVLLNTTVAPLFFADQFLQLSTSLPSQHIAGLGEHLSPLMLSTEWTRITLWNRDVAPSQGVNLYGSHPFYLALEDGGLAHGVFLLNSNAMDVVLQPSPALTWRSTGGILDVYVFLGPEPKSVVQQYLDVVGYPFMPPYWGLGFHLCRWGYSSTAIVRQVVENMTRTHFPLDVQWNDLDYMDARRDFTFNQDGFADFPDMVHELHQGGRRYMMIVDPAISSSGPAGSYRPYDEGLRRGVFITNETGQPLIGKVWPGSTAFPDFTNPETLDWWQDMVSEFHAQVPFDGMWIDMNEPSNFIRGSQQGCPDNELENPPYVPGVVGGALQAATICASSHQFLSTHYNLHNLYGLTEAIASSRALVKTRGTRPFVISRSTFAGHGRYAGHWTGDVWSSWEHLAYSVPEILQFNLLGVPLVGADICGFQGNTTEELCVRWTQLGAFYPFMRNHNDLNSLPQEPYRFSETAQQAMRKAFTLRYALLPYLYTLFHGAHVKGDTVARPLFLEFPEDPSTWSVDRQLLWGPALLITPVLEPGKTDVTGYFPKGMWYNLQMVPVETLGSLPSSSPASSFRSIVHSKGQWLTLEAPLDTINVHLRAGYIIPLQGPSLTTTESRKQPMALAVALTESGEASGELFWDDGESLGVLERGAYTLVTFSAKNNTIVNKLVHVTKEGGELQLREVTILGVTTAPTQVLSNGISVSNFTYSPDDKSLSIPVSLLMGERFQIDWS

Row | SMILES | inhibition [4] | inhibition [6] | also measured
1 | CN(C)C(=N)NC(=N)N [METFORMIN] |  |  | Activity [1]: 31.2%; Activity [2]: 21.4%; Activity [3]: 26.9%
2 | CCOC(=O)C(C(=O)OCC)C(CC(=O)C[C@@H]1O[C@H](CO)[C@@H](O)[C@H](O)[C@H]1O)c1ccccc1 (mixture of isomers) | -3.3% |  | 
3 | CCOC(=O)C(C(=O)OCC)C(CC(=O)C[C@@H]1O[C@H](CO)[C@@H](O)[C@H](O)[C@H]1O)c1cccnc1 (mixture of isomers) | 37.6% |  | 
4 | COc1ccc(/C=C/C(=O)C[C@@H]2O[C@H](CO)[C@@H](O)[C@H](O)[C@H]2O)cc1OC | 15% | -5.9% | Activity [1]: 26.7%; Activity [2]: 13.4%; Activity [3]: 14.1%
5 | O=C(/C=C/c1ccc2ccccc2c1)C[C@@H]1O[C@H](CO)[C@@H](O[C@@H]2O[C@H](CO)[C@@H](O)[C@H](O)[C@H]2O)[C@H](O)[C@H]1O | -3.9% | -8.3% | 
6 | CCOC(=O)C(C(=O)OCC)C(CC(=O)C[C@@H]1O[C@H](CO)[C@@H](O)[C@H](O)[C@H]1O)c1ccc2ccccc2c1 (mixture of isomers) | 4.6% | 14.7% | 
7 | COc1cc(/C=C/C(=O)C[C@@H]2O[C@H](CO)[C@@H](O)[C@H](O)[C@H]2O)cc(OC)c1OC | 4.7% |  | 
8 | O=C(/C=C/c1ccc(Cl)cc1)C[C@@H]1OC[C@@H](O)[C@H](O)[C@H]1O | 4.7% |  | inhibition [5]: -8.3%
9 | CCOC(=O)C(C(=O)OCC)C(CC(=O)C[C@@H]1O[C@H](CO)[C@@H](O)[C@H](O)[C@H]1O)c1ccc(Cl)cc1 (mixture of isomers) | -6% | -5.4% | inhibition [5]: -10%
10 | O=C(/C=C/c1ccc(Cl)cc1)C[C@@H]1O[C@H](CO)[C@@H](O)[C@H](O)[C@H]1O |  |  | inhibition [5]: -5.97%
11 | CCOC(=O)C(C(=O)OCC)C(CC(=O)C[C@@H]1O[C@H](CO)[C@@H](O)[C@H](O)[C@H]1O)c1ccc(OC)c(OC)c1 (mixture of isomers) | 36.2% | 24% | inhibition [5]: -2.3%

Continued, in another order:

Row | inhibition [4] | inhibition [6] | SMILES | also measured
12 | 8% | 15.6% | O=C(/C=C/c1cccc([N+](=O)[O-])c1)C[C@@H]1O[C@H](CO)[C@@H](O)[C@H](O)[C@H]1O | inhibition [5]: -10%
13 | 4.2% | -3.4% | O=C(/C=C/c1ccc(O)cc1)C[C@@H]1O[C@H](CO)[C@@H](O)[C@H](O)[C@H]1O | 
14 |  | 7.3% | O=C(/C=C/c1ccccc1)C[C@@H]1O[C@H](CO)[C@@H](O)[C@H](O)[C@H]1O | Activity [1]: 19.5%; Activity [2]: 12.1%; Activity [3]: 2.91%; IC50 [7]: 87 µM
15 | -7.7% |  | O=C(/C=C/c1ccc2ccccc2c1)C[C@@H]1O[C@H](CO)[C@@H](O)[C@H](O)[C@H]1O | Activity [1]: 25%; Activity [2]: 10.3%; Activity [3]: 14.2%; IC50 [8]: 98 µM
16 | -9.7% |  | COc1ccc(/C=C/C(=O)C[C@@H]2O[C@H](CO)[C@@H](O)[C@H](O)[C@H]2O)cc1 | 
17 | -8.1% |  | O=C(/C=C/c1cccnc1)C[C@@H]1O[C@H](CO)[C@@H](O)[C@H](O)[C@H]1O | 
